Test results taken from patent publication US8067445B2, “N,N-disubstituted aminoalkylbiphenyl antagonists of prostaglandin D2 receptors” (Panmira Pharmaceuticals, LLC, priority 2008, dated 2011).

Tests used:
[1] = molecular target: T1, human DP2 receptor (Homo sapiens, UniProt Q9Y5Y4); test: DP2/CRTH2 radioligand binding assay ([3H]PGD2); conditions: [3H]PGD2 binding, membranes of HEK293 cells expressing human DP2; read-out: hDP2
T1 construct: expressed in transfected cells
T1 sequence (Q9Y5Y4 1-395): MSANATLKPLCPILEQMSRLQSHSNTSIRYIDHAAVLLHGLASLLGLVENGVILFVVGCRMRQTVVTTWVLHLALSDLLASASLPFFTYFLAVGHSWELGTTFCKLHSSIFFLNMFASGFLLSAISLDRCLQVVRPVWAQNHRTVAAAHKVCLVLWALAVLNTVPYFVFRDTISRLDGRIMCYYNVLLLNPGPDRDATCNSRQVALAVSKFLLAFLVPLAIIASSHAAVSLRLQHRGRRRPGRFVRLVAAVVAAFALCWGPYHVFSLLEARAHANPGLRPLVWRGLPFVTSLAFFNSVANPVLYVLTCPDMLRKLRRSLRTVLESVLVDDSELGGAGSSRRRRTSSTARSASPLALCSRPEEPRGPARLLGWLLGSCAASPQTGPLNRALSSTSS
Procedure, shortened: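 Membranes from HEK293 cells stably expressing recombinant human DP2 incubated 60 min at room temperature with 1 nM [3H]PGD2 and compound in pH 7.4 Hepes/MnCl2/EDTA buffer, ± 0.2% human serum albumin. Bound radioactivity measured after filtration; non-specific binding defined with 10 μM PGD2. IC50 from titration curves.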

[2] = molecular target: T2, human DP1 receptor (Homo sapiens, UniProt Q13258); test: DP1 radioligand binding assay ([3H]BWA868C, platelet membranes); conditions: [3H]BWA868C binding, human platelet membranes; read-out: hDP1
T2 construct: tissue Biological Specialty Corporation; host or cells: human platelet membranes
T2 sequence (Q13258 1-359): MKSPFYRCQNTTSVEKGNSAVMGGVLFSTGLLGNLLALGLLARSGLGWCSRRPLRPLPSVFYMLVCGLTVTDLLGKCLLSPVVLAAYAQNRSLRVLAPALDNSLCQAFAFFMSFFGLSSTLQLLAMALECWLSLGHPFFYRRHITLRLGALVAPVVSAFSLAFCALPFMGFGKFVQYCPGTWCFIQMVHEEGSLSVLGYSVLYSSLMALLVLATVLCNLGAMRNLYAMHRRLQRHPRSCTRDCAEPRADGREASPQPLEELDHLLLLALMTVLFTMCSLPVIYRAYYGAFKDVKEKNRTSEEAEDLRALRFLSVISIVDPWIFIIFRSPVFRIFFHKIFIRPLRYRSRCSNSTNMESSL
Experimental: The ability of a compound to bind to the human DPI receptor was evaluated via a radioligand membrane binding assay using the DP1 selective synthetic ligand [^311]BWA868C. Packed human platelets (Biological Specialty Corporation), were resuspended in 6 volumes of Hepes/HBSS buffer (10 mM Hepes, 1 mM DTT in Hanks Balanced Salt Solution (HBSS)), lysed and centrifuged at 75,000×g to pellet the membranes. Membranes were resuspended in Hepes/HBSS buffer to approximately 12 mg protein/ml. Membranes (20 μg protein/well) are incubated in 96-well plates with 2 nM [^3H]BWA868C and test compound in Assay Buffer (50 mM Hepes, 10 mM MnCl2, 1 mM EDTA, plus or minus 0.2% human serum albumin, pH 7.4) for 60 minutes at room temperature. The reactions are terminated by rapid filtration through Whatman GF/C glass fibre filter plates. The filter plates were pre-soaked in 0.33% polyethylenimine for 30 minutes at room temperature then washed in Wash Buffer (50 mM Hepes, 0.5 M NaCl pH 7.4) prior to harvesting. After harvesting, the filter plates are washed 3 times with 1 ml cold Wash Buffer then dried. Scintillant is then added to the plates and the radioactivity retained on the filters is determined on a Packard TopCount (Perkin Elmer). Specific binding is determined as total radioactive binding minus non-specific binding in the presence of 10 μM BW A868C. IC50s were determined using GraphPad prism analysis of drug titration curves.

## CCN(Cc1cc(NC(=O)c2ccc(Cl)cc2)ccc1-c1cc(CC(=O)O)ccc1OC)C(=O)OCc1ccccc1 [Compound 1-154, [2′-[(Benzyloxycarbonyl-ethyl-amino)-methyl]-4′-(4-chloro-benzoylamino)-6-methoxy-biphenyl-3-yl]-acetic acid]
[1]
  IC50: < 300 nM
[2]
  IC50: 1000 to 30000 nM

## CCN(Cc1ccc(C(F)(F)F)cc1-c1cc(CC(=O)O)ccc1OC)C(=O)OCc1ccc(Cl)cc1 [Compound 1-174, (2′-{[(4-Chloro-benzyloxycarbonyl)-ethyl-amino]-methyl}-6-methoxy-5′-trifluoromethyl-biphenyl-3-yl)-acetic acid]
[1]
  IC50: < 300 nM
[2]
  IC50: 300 to 1000 nM

## CCN(Cc1cc(C(F)(F)F)ccc1-c1cc(CC(=O)O)cc(C(F)(F)F)c1)C(=O)NCc1ccccc1 [Compound 1-158, [2′-(3-Benzyl-1-ethyl-ureidomethyl)-5,4′-bis-trifluoromethyl-biphenyl-3-yl]-acetic acid]
[1]
  IC50: < 300 nM
[2]
  IC50: 1000 to 30000 nM

## CCCN/C(=N\C#N)N(CC)Cc1cc(C(F)(F)F)ccc1-c1cc(CC(=O)O)ccc1OC [Compound 1-145, [2′-(N′-Cyano-N-ethyl-N″-propyl-guanidinomethyl)-6-methoxy-4′-trifluoromethyl-biphenyl-3-yl]-acetic acid]
[1]
  IC50: < 300 nM
[2]
  IC50: 1000 to 30000 nM

## CCN(Cc1cc(C(F)(F)F)ccc1-c1cc(Cl)cc(CC(=O)O)c1)C(=O)OC [Compound 1-164, {5-Chloro-2′-[(ethyl-methoxycarbonyl-amino)-methyl]-4′-trifluoromethyl-biphenyl-3-yl}-acetic acid]
[1]
  IC50: < 300 nM
[2]
  IC50: 1000 to 30000 nM

## CCN(Cc1cc(C(F)(F)F)ccc1-c1cc(C(F)(F)C(=O)O)ccc1OC)C(=O)OCc1ccccc1 [Compound 1-132, {2′-[(Benzyloxycarbonyl-ethyl-amino)-methyl]-6-methoxy-4′-trifluoromethyl-biphenyl-3-yl}-difluoro-acetic acid]
[1]
  IC50: 1000 to 30000 nM
[2]
  IC50: 1000 to 30000 nM

## CCN(Cc1ccc(C)cc1-c1cc(CC(=O)O)ccc1OC)C(=O)OCc1ccc(F)cc1 [Compound 1-169, (2′-{[Ethyl-(4-fluoro-benzyloxycarbonyl)-amino]-methyl}-6-methoxy-5′-methyl-biphenyl-3-yl)-acetic acid]
[1]
  IC50: < 300 nM
[2]
  IC50: 1000 to 30000 nM

## CCN(Cc1cc(C(F)(F)F)ccc1-c1cc(CC(=O)O)ccc1OC)/C(=N/C#N)NCc1ccccn1 [Compound 1-147, [2′-(N′-Cyano-N-ethyl-N″-pyridin-2-ylmethyl-guanidinomethyl)-6-methoxy-4′-trifluoromethyl-biphenyl-3-yl]-acetic acid]
[1]
  IC50: < 300 nM
[2]
  IC50: 1000 to 30000 nM

## CCN(Cc1cc(NS(=O)(=O)c2ccc(Cl)cc2)ccc1-c1cc(CC(=O)O)ccc1OC)C(=O)OCc1ccccc1 [Compound 1-156, [2′-[(Benzyloxycarbonyl-ethyl-amino)-methyl]-4′-(4-chloro-benzenesulfonylamino)-6-methoxy-biphenyl-3-yl]-acetic acid]
[1]
  IC50: < 300 nM
[2]
  IC50: 1000 to 30000 nM

## CCN(Cc1cc(C(F)(F)F)ccc1-c1cc(CC(=O)O)cc(C(F)(F)F)c1)C(C)=O [Compound 1-138, {2′-[(Acetyl-ethyl-amino)-methyl]-5,4′-bis-trifluoromethyl-biphenyl-3-yl}-acetic acid]
[1]
  IC50: < 300 nM
[2]
  IC50: 1000 to 30000 nM

## CCN(Cc1cc(C(F)(F)F)ccc1-c1cc(Cc2nn[nH]n2)ccc1OC)C(=O)OCc1ccccc1 [Compound 2-5, Ethyl-[2′-methoxy-5′-(2H-tetrazol-5-ylmethyl)-4-trifluoromethyl-biphenyl-2-ylmethyl]-carbamic acid benzyl ester]
[1]
  IC50: < 300 nM
[2]
  IC50: < 300 nM

## CCN(Cc1cc(C(F)(F)F)ccc1-c1cc(CC(N)=O)ccc1OC)C(=O)C1CC1 [Compound 2-8, Cyclopropanecarboxylic acid (5′-carbamoylmethyl-2′-methoxy-4-trifluoromethyl-biphenyl-2-ylmethyl)-ethyl-amide]
[1]
  IC50: 1000 to 30000 nM
[2]
  IC50: 1000 to 30000 nM

## CCN(Cc1cc(C(F)(F)F)ccc1-c1cc(Cc2nn[nH]n2)ccc1OC)C(=O)C1CC1 [Compound 2-7, Cyclopropanecarboxylic acid ethyl-[2′-methoxy-5′-(2H-tetrazol-5-ylmethyl)-4-trifluoromethyl-biphenyl-2-ylmethyl]-amide]
[1]
  IC50: 1000 to 30000 nM
[2]
  IC50: 1000 to 30000 nM

## COc1ccc(CC(=O)O)cc1-c1ccc(C(F)(F)F)cc1CN(CCc1ccccc1)S(C)(=O)=O [Compound 1-101, {2′-[(Methanesulfonyl-phenethyl-amino)-methyl]-6-methoxy-4′-trifluoromethyl-biphenyl-3-yl}-acetic acid]
[1]
  IC50: 1000 to 30000 nM
[2]
  IC50: 1000 to 30000 nM

## CCN(Cc1cc(C(F)(F)F)ccc1-c1cc(CC(=O)O)ccc1OC)C(=O)Cn1cncn1 [Compound 1-150, (2′-{[Ethyl-(2-[1,2,4]triazol-1-yl-acetyl)-amino]-methyl}-6-methoxy-4′-trifluoromethyl-biphenyl-3-yl)-acetic acid]
[1]
  IC50: 300 to 1000 nM
[2]
  IC50: 1000 to 30000 nM

## CCN(C(C)=O)C(C)c1cc(C(F)(F)F)ccc1-c1cc(CC(=O)O)ccc1OC (stereo not drawn) [Compound 1-22, {2′-[1-(Acetyl-ethyl-amino)-ethyl]-6-methoxy-4′-trifluoromethyl-biphenyl-3-yl}-acetic acid]
[1]
  IC50: 1000 to 30000 nM
[2]
  IC50: 1000 to 30000 nM

## CCN(Cc1cc(C(F)(F)F)ccc1-c1cc(C(C)(C)C(=O)O)ccc1OC)C(C)=O [Compound 1-115, 2-{2′-[(Acetyl-ethyl-amino)-methyl]-6-methoxy-4′-trifluoromethyl-biphenyl-3-yl}-2-methyl-propionic acid]
[1]
  IC50: > 30000 nM
[2]
  IC50: 1000 to 30000 nM

## CCN(Cc1cc(C(F)(F)F)ccc1-c1cc(CC(=O)O)ccc1OC)/C(=N/C#N)NCC1CC1 [Compound 1-146, [2′-(N′-Cyano-N″-cyclopropylmethyl-N-ethyl-guanidinomethyl)-6-methoxy-4′-trifluoromethyl-biphenyl-3-yl]-acetic acid]
[1]
  IC50: < 300 nM
[2]
  IC50: 1000 to 30000 nM

## CCN(Cc1cc(C(F)(F)F)ccc1-c1cc(CC(=O)O)ccc1-c1ccccc1)C(=O)OCc1ccccc1 [Compound 1-144, {2″-[(Benzyloxycarbonyl-ethyl-amino)-methyl]-4″-trifluoromethyl-[1,1′;2′,1″]terphenyl-4′-yl}-acetic acid]
[1]
  IC50: < 300 nM
[2]
  IC50: 300 to 1000 nM

## CCN(Cc1cc(C(F)(F)F)ccc1-c1cc(C(F)(F)C(=O)O)ccc1OC)C(C)=O [Compound 1-91, {2′-[(Acetyl-ethyl-amino)-methyl]-6-methoxy-4′-trifluoromethyl-biphenyl-3-yl}-difluoro-acetic acid]
[1]
  IC50: 1000 to 30000 nM
[2]
  IC50: 1000 to 30000 nM

## CCN(Cc1ccc(C)cc1-c1cc(CC(=O)O)ccc1OC)C(=O)NCc1ccccc1 [Compound 1-173, [2′-(3-Benzyl-1-ethyl-ureidomethyl)-6-methoxy-5′-methyl-biphenyl-3-yl]-acetic acid]
[1]
  IC50: < 300 nM
[2]
  IC50: 1000 to 30000 nM

## CCN(Cc1cc(C(F)(F)F)ccc1-c1cc(CC(=O)O)ccc1OC)C(=O)NCc1ccc(Cl)cc1 [Compound 1-140, {2′-[3-(4-Chloro-benzyl)-1-ethyl-ureidomethyl]-6-methoxy-4′-trifluoromethyl-biphenyl-3-yl}-acetic acid]
[1]
  IC50: < 300 nM
[2]
  IC50: 1000 to 30000 nM

## CCN(Cc1cc(C(F)(F)F)ccc1-c1cc(CC(C)(C)O)ccc1OC)C(C)=O [Compound 2-2, N-Ethyl-N-[5′-(2-hydroxy-2-methyl-propyl)-2′-methoxy-4-trifluoromethyl-biphenyl-2-ylmethyl]-acetamide]
[1]
  IC50: 1000 to 30000 nM
[2]
  IC50: 1000 to 30000 nM

## CCN(Cc1ccc(C)cc1-c1cc(CC(=O)O)ccc1OC)C(=O)OCc1ccc(Cl)cc1 [Compound 1-175, (2′-{[(4-Chloro-benzyloxycarbonyl)-ethyl-amino]-methyl}-6-methoxy-5′-methyl-biphenyl-3-yl)-acetic acid]
[1]
  IC50: < 300 nM
[2]
  IC50: 300 to 1000 nM
